Paper PMC12647645, “Structural interactions of BWC0977 with Klebsiella pneumoniae topoisomerase IV and biochemical basis of its broad-spectrum activity” (Communications Biology, 2025)
Converted amounts (≈) assume the structure as drawn. Like-named read-outs stand apart in the source and are kept apart here.

How the values were obtained:
A. baumannii ATCC 19606 = experiment: MIC broth microdilution; type: cell-based; conditions: Acinetobacter baumannii
[1] = test system: A. baumannii ATCC 19606 resistant mutant colonies (mutant 1-5); experiment: microbe, parasite or virus in culture; type: cell-based; conditions: Acinetobacter baumannii
[2] = test system: E. coli MG1655 (GyrA WT, ParC WT); experiment: microbe, parasite or virus in culture; type: cell-based; conditions: Escherichia coli
[3] = test system: E. coli MG1655 GyrA D82N, ParC WT; experiment: microbe, parasite or virus in culture; type: cell-based; conditions: Escherichia coli
[4] = test system: E. coli MG1655 GyrA WT, ParC D79N; experiment: microbe, parasite or virus in culture; type: cell-based; conditions: Escherichia coli
[5] = test system: E. coli MG1655 GyrA D82N, ParC D79N; experiment: microbe, parasite or virus in culture; type: cell-based; conditions: Escherichia coli
[6] = test system: E. coli MG1655 GyrA M120A, ParC M118A; experiment: microbe, parasite or virus in culture; type: cell-based; conditions: Escherichia coli
[7] = test system: E. coli MG1655 GyrA R121K, ParC WT; experiment: microbe, parasite or virus in culture; type: cell-based; conditions: Escherichia coli
[8] = test system: E. coli MG1655 GyrA WT, ParC R119K; experiment: microbe, parasite or virus in culture; type: cell-based; conditions: Escherichia coli
E. coli gyrase = target: T1, E. coli gyrase (Escherichia coli, UniProt P0AES4+P0AES6); experiment: biochemical; type: biochemical
T1 construct: purchased Inspiralis

E. coli topoisomerase IV = target: T2, E. coli topoisomerase IV (Escherichia coli, UniProt P0AFI2+P20083); experiment: biochemical; type: biochemical; conditions: read-out: IC50 E. coli topo IV decatenation
T2 construct: purchased Inspiralis

Human topo IIα = Human topo IIα (Homo sapiens, UniProt P11388); experiment: Human topo IIα decatenation assay; type: biochemical
Description: (§1) Human topo IIα (0.9 nM) and topo IIß (2.2 nM) decatenation assays were performed following the same protocol used for bacterial topoisomerase IV decatenation assays. The assay buffer was made of 50 mM Tris. HCl (pH 7.5), 125 mM NaCl, 10 mM MgCl2, 5 mM DTT, and 100 μg/mL albumin.

Human topo IIß = Human topo IIß (Homo sapiens, UniProt Q02880); experiment: Human topo IIß decatenation assay; type: biochemical
Description: as §1

[9] = ATCC19606, WT, Supplementary Table 4, read-out: MIC 90 in (μg/mL), A. baumannii ATCC 19606 (WT)
[10] = ATCC19606, read-out: MIC 90 in (μg/mL), resistant mutant colony 1
[11] = ATCC19606, read-out: MIC 90 in (μg/mL), resistant mutant colony 2
[12] = ATCC19606, read-out: MIC 90 in (μg/mL), resistant mutant colony 3
[13] = ATCC19606, read-out: MIC 90 in (μg/mL), resistant mutant colony 4
[14] = ATCC19606, read-out: MIC 90 in (μg/mL), resistant mutant colony 5

CO[C@@H]1[C@@H](OC(N)=O)[C@@H](O)[C@H](Oc2ccc3c(O)c(NC(=O)c4ccc(O)c(CC=C(C)C)c4)c(=O)oc3c2C)OC1(C)C [Novobiocin]
MIC90 (A. baumannii ATCC 19606; [9]): 10 µg/mL (≈ 16.3 µM)

CC[C@H]1OC(=O)[C@@](C)(F)C(=O)[C@H](C)[C@@H](O[C@@H]2O[C@H](C)C[C@H](N(C)C)[C@H]2O)[C@](C)(OC)C[C@@H](C)C(=O)[C@H](C)[C@H]2N(CCCCn3cc(-c4cccc(N)c4)nn3)C(=O)O[C@]12C [Solithromycin]
MIC90 (A. baumannii ATCC 19606; ATCC19606, read-out: MIC 90 in (μg/mL), A. baumannii ATCC 19606 (WT)): 2.5 µg/mL (≈ 2.96 µM)
MIC90 [1, 10]: 5 µg/mL (≈ 5.92 µM)
MIC90 [1, 11]: 2.5 µg/mL (≈ 2.96 µM)
MIC90 [1, 12]: 2.5 µg/mL (≈ 2.96 µM)
MIC90 [1, 13]: 5 µg/mL (≈ 5.92 µM)
MIC90 [1, 14]: 2.5 µg/mL (≈ 2.96 µM)

C[C@@H](O)[C@H]1C(=O)N2C(C(=O)O)=C(S[C@@H]3CN[C@H](C(=O)N(C)C)C3)[C@H](C)[C@H]12 [Meropenem]
MIC90 (A. baumannii ATCC 19606; [9]): 0.3 µg/mL (≈ 0.782 µM)
MIC90 [1, 12]: 0.15 µg/mL (≈ 0.391 µM)
MIC90 [1, 14]: 0.6 µg/mL (≈ 1.56 µM)

CC1(C)S[C@@H]2[C@H](NC(=O)[C@H](N)c3ccccc3)C(=O)N2[C@H]1C(=O)O [Ampicillin]
MIC [2]: 5 µg/mL (≈ 14.3 µM)
MIC [3]: 5 µg/mL (≈ 14.3 µM)
MIC [4]: 2.5 µg/mL (≈ 7.15 µM)
MIC [5]: 3.3 µg/mL (≈ 9.44 µM)
MIC [6]: 4.2 µg/mL (≈ 12 µM)
MIC [7]: 4.2 µg/mL (≈ 12 µM)
MIC [8]: 5 µg/mL (≈ 14.3 µM)

C[C@@H]1CN2c3c(cc4c(N5C(=O)OC[C@@H]5C)noc4c3F)CC3(C(=O)NC(=O)NC3=O)[C@H]2[C@H](C)O1 [Zoliflodacin]
IC50 (E. coli gyrase): 0.8 µM
IC50 (E. coli topoisomerase IV): 27 ± 12 µM
IC50 (Human topo IIα): > 200 µM

COc1cc([C@@H]2c3cc4c(cc3[C@@H](O[C@@H]3O[C@@H]5CO[C@@H](c6cccs6)O[C@H]5[C@H](O)[C@H]3O)[C@H]3COC(=O)[C@H]23)OCO4)cc(OC)c1O [Teniposide]
IC50 (Human topo IIα; read-out: IC50 Human topo IIα decatenation): 18 ± 5 µM
IC50 (Human topo IIß): 92 µM

C[C@H]1COc2c(N3CCN(C)CC3)c(F)cc3c(=O)c(C(=O)O)cn1c23 [Levofloxacin]
IC50 (E. coli gyrase): 0.39 µM
IC50 (E. coli topoisomerase IV): 13 µM
MIC [2]: 0.03 µg/mL (≈ 0.083 µM)
MIC [3]: 0.13 µg/mL (≈ 0.36 µM)
MIC [4]: 0.02 µg/mL (≈ 0.0553 µM)
MIC [5]: 0.25 µg/mL (≈ 0.692 µM)
MIC [6]: 0.02 µg/mL (≈ 0.0553 µM)
MIC [7]: 0.08 µg/mL (≈ 0.221 µM)
MIC [8]: 0.04 µg/mL (≈ 0.111 µM)

CN(C)[C@@H]1C(O)=C(C(N)=O)C(=O)[C@@]2(O)C(O)=C3C(=O)c4c(O)cccc4[C@@](C)(O)[C@H]3C[C@@H]12 [Tetracycline]
MIC90 (A. baumannii ATCC 19606; [9]): 0.3 µg/mL (≈ 0.675 µM)
MIC90 [1, 10]: 0.6 µg/mL (≈ 1.35 µM)
MIC90 [1, 11]: 0.6 µg/mL (≈ 1.35 µM)
MIC90 [1, 12]: 0.6 µg/mL (≈ 1.35 µM)
MIC90 [1, 13]: 0.6 µg/mL (≈ 1.35 µM)
MIC90 [1, 14]: 0.6 µg/mL (≈ 1.35 µM)

CO[C@H]1/C=C/O[C@@]2(C)Oc3c(C)c(O)c4c(O)c(c(/C=N/N5CCN(C)CC5)c(O)c4c3C2=O)NC(=O)/C(C)=C\C=C\[C@H](C)[C@H](O)[C@@H](C)[C@@H](O)[C@@H](C)[C@H](OC(C)=O)[C@@H]1C [Rifampicin]
MIC90 (A. baumannii ATCC 19606; [9]): 2.5 µg/mL (≈ 3.04 µM)
MIC90 [1, 10]: 1.25 µg/mL (≈ 1.52 µM)
